From ChEMBL document CHEMBL1201862, “PubChem BioAssay data set” (2004)
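1) Cells in 96-well plates. 2) Compound, 48 h, 5 concentrations. 3) Linear interpolation between surrounding doses. 4) Unreached endpoint = highest concentration. GI50 marks 50% less growth.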 Activity calls are given as the source filed them. Rule as the data show it: active = GI50 up to about 1.1 µM and inactive = higher.

How the values were obtained:
Experiment in all cases: DTP human tumour cell line panel, 48 h
A549 = test system: A549
ACHN = test system: ACHN
BT-549 = test system: BT-549
CAKI-1 = test system: CAKI-1
HL-60 = test system: HL-60
Hs-578T = test system: Hs-578T
M14 = test system: M14
MCF7 = test system: MCF7
MDA-MB-231 = test system: MDA-MB-231
NCI-H23 = test system: NCI-H23
NCI/ADR-RES = test system: NCI/ADR-RES
RXF 393 = test system: RXF 393
SF-268 = test system: SF-268
SF-539 = test system: SF-539
SN12C = test system: SN12C
SNB-75 = test system: SNB-75
SW-620 = test system: SW-620
UACC-257 = test system: UACC-257
SK-MEL-28 = test system: SK-MEL-28
U-251 = test system: U-251

Measured: GI50

O=C1NC(=O)c2ccccc2/C1=C/c1ccc2c(c1)OCO2
inactive: A549 34 µM | ACHN 15.8 µM | BT-549 20.9 µM | CAKI-1 24.5 µM | HL-60 2.72 µM | Hs-578T 10.4 µM | M14 24 µM | MCF7 20 µM | MDA-MB-231 12.3 µM | NCI-H23 22.3 µM | NCI/ADR-RES 17.9 µM | RXF 393 3.29 µM | SF-268 21.8 µM | SF-539 21.5 µM | SN12C 19.9 µM | SNB-75 28.1 µM | SW-620 30.5 µM | UACC-257 21.4 µM

COc1ccccc1/C=C1\Sc2scc(-c3ccc(O)c(O)c3)[n+]2C1=O
inactive: A549 45.8 µM | ACHN 16.7 µM | BT-549 17.8 µM | CAKI-1 15.1 µM | HL-60 2.28 µM | Hs-578T 88.3 µM | M14 15.1 µM | MCF7 25.5 µM | MDA-MB-231 20 µM | NCI-H23 26.6 µM | NCI/ADR-RES 27.3 µM | RXF 393 17.7 µM | SF-268 58.9 µM | SF-539 20.7 µM | SK-MEL-28 18.2 µM | SN12C 22.5 µM | SW-620 15.9 µM | U-251 27.8 µM | UACC-257 26.3 µM

COC(=O)NC(C(F)(F)F)(C(F)(F)F)P1(=O)OCCCO1
inactive: A549 38.5 µM | ACHN 21.4 µM | BT-549 22.1 µM | HL-60 16.6 µM | Hs-578T 37.4 µM | M14 24.8 µM | MCF7 31.3 µM | MDA-MB-231 25.3 µM | NCI-H23 20.2 µM | NCI/ADR-RES 39.4 µM | RXF 393 2.74 µM | SF-268 25.7 µM | SF-539 21.1 µM | SK-MEL-28 35.6 µM | SN12C 34.8 µM | SNB-75 47.6 µM | SW-620 20.7 µM | U-251 13.1 µM

O=C1Nc2ccccc2S/C1=C\c1ccc(C(F)(F)F)cc1
inactive: A549 > 100 µM | ACHN > 100 µM | BT-549 > 100 µM | CAKI-1 4.59 µM | HL-60 > 100 µM | Hs-578T > 100 µM | M14 > 100 µM | MCF7 > 100 µM | MDA-MB-231 > 100 µM | NCI/ADR-RES > 100 µM | RXF 393 > 100 µM | SF-268 > 100 µM | SF-539 > 100 µM | SK-MEL-28 > 100 µM | SN12C > 100 µM | SNB-75 37.1 µM | SW-620 > 100 µM | U-251 > 100 µM | UACC-257 > 100 µM

OC[C@H]1CC(c2nn[nH]n2)[C@H](O)[C@@H]1O (some centres undefined)
inactive: A549 > 100 µM | ACHN > 100 µM | BT-549 > 100 µM | HL-60 > 100 µM | Hs-578T > 100 µM | M14 > 100 µM | MCF7 > 100 µM | MDA-MB-231 > 100 µM | NCI-H23 > 100 µM | NCI/ADR-RES > 100 µM | RXF 393 8.13 µM | SF-268 > 100 µM | SF-539 > 100 µM | SK-MEL-28 > 100 µM | SN12C > 100 µM | SNB-75 > 100 µM | SW-620 > 100 µM | U-251 > 100 µM

COc1cc(/C=C2\CC(C)C/C(=C\c3ccc(O)c(OC)c3)C2=O)ccc1O (centres undefined)
inactive: A549 3.64 µM | ACHN 3.13 µM | BT-549 3.23 µM | HL-60 2.98 µM | Hs-578T 2.05 µM | M14 3.04 µM | MCF7 4.66 µM | MDA-MB-231 2.06 µM | NCI-H23 3.1 µM | NCI/ADR-RES 17.5 µM | RXF 393 2.85 µM | SF-268 4.31 µM | SF-539 3.12 µM | SK-MEL-28 3.42 µM | SN12C 2.56 µM | SNB-75 4.24 µM | SW-620 2.24 µM | U-251 2.38 µM | UACC-257 3.87 µM

Cc1ccc(-c2c(C#N)c(-c3ccc([N+](=O)[O-])cc3)c(C#N)c(=O)n2NS(=O)(=O)c2ccc(C)cc2)cc1
inactive: A549 51.9 µM | ACHN 51.9 µM | BT-549 16.5 µM | CAKI-1 50.6 µM | HL-60 31.3 µM | Hs-578T 30.7 µM | M14 54.1 µM | MCF7 24.9 µM | MDA-MB-231 61.9 µM | NCI/ADR-RES 38.1 µM | RXF 393 52.2 µM | SF-268 79.3 µM | SF-539 38.1 µM | SK-MEL-28 52.8 µM | SN12C 50 µM | SNB-75 74.5 µM | SW-620 51.6 µM | U-251 44.8 µM | UACC-257 > 100 µM

C=CCSC1=N/C(=C\c2ccc(OC)cc2)C(=O)N1CC=C
inactive: A549 30.9 µM | ACHN 33.3 µM | BT-549 27 µM | CAKI-1 50.5 µM | HL-60 16 µM | Hs-578T 64.7 µM | M14 36.7 µM | MCF7 28.4 µM | MDA-MB-231 37.2 µM | NCI-H23 28.4 µM | NCI/ADR-RES 27.6 µM | RXF 393 14.6 µM | SF-268 60.4 µM | SF-539 36.6 µM | SK-MEL-28 42.5 µM | SN12C 24.1 µM | SW-620 35.2 µM | U-251 24.3 µM | UACC-257 23.2 µM
